Measurements as given in patent US8829007B2 (priority 2009, dated 2014).
pEC50, pIC50: −log10 of the molar value. Like-named read-outs stand apart in the source and are kept apart here.

How the values were obtained:
[1] = tested on: influenza A virus (A/PR/8/34); test: microbe, parasite or virus in culture; format: cell-based; details: Influenza A virus, PR/8, MDCK, read-out: IC50 (mean all)
[2] = tested on: A/PR/8/34 influenza virus; test: microbe, parasite or virus in culture; format: cell-based; details: Influenza A virus, PR/8, MDCK, read-out: EC50 (mean all)
[3] = MDCK cells infected with A/PR/8/34, cell protection (CPE)
[4] = MDCK cells infected with A/PR/8/34, bDNA viral RNA

| Compound | pIC50 [1, 3] | pEC50 [2, 4] | pIC50 [1] | pEC50 [2] |
| --- | --- | --- | --- | --- |
| O=C(C1CCCCC1)N1CCC[C@H](CNc2nc(-c3c[nH]c4ncc(Cl)cc34)ncc2F)C1 [Compound 95, (R)-(3-((2-(5-chloro-1H-pyrrolo[2,3-b]pyridin-3-yl)-5-fluoropyrimidin-4-ylamino)methyl)piperidin-1-yl)(cyclohexyl)methanone] | > 5.30 | > 5.30 |  |  |
| O=C(c1cccs1)N1CCC[C@H](CNc2nc(-c3c[nH]c4ncc(Cl)cc34)ncc2F)C1 [Compound 97, (R)-(3-((2-(5-chloro-1H-pyrrolo[2,3-b]pyridin-3-yl)-5-fluoropyrimidin-4-ylamino)methyl)piperidin-1-yl)(thiophen-2-yl)methanone] | > 5.30 | > 5.30 |  |  |
| O=C(Cc1ccc(F)cc1)N1CCC[C@H](CNc2nc(-c3c[nH]c4ncc(Cl)cc34)ncc2F)C1 [Compound 98, (R)-1-(3-((2-(5-chloro-1H-pyrrolo[2,3-b]pyridin-3-yl)-5-fluoropyrimidin-4-ylamino)methyl)piperidin-1-yl)-2-(4-fluorophenyl)ethanone] | > 5.30 | > 5.30 |  |  |
| O=C(C1CCCC1)N1CCC[C@H](CNc2nc(-c3c[nH]c4ncc(Cl)cc34)ncc2F)C1 [Compound 99, (R)-(3-((2-(5-chloro-1H-pyrrolo[2,3-b]pyridin-3-yl)-5-fluoropyrimidin-4-ylamino)methyl)piperidin-1-yl)(cyclopentyl)methanone] | > 5.30 | > 5.30 |  |  |
| O=C(CC1CCCC1)N1CCC[C@H](CNc2nc(-c3c[nH]c4ncc(Cl)cc34)ncc2F)C1 [Compound 100, (R)-1-(3-((2-(5-chloro-1H-pyrrolo[2,3-b]pyridin-3-yl)-5-fluoropyrimidin-4-ylamino)methyl)piperidin-1-yl)-2-cyclopentylethanone] | > 5.30 | > 5.30 |  |  |
| O=C(c1cnccn1)N1CCC[C@H](CNc2nc(-c3c[nH]c4ncc(Cl)cc34)ncc2F)C1 [Compound 101, (R)-(3-((2-(5-chloro-1H-pyrrolo[2,3-b]pyridin-3-yl)-5-fluoropyrimidin-4-ylamino)methyl)piperidin-1-yl)(pyrazin-2-yl)methanone] | > 5.30 | > 5.30 |  |  |
| O=C(c1ccco1)N1CCC[C@H](CNc2nc(-c3c[nH]c4ncc(Cl)cc34)ncc2F)C1 [Compound 102, (R)-(3-((2-(5-chloro-1H-pyrrolo[2,3-b]pyridin-3-yl)-5-fluoropyrimidin-4-ylamino)methyl)piperidin-1-yl)(furan-2-yl)methanone] | > 5.30 | > 5.30 |  |  |
| O=C(Cc1cccs1)N1CCC[C@H](CNc2nc(-c3c[nH]c4ncc(Cl)cc34)ncc2F)C1 [Compound 104, (R)-1-(3-((2-(5-chloro-1H-pyrrolo[2,3-b]pyridin-3-yl)-5-fluoropyrimidin-4-ylamino)methyl)piperidin-1-yl)-2-(thiophen-2-yl)ethanone] | > 5.30 | > 5.30 |  |  |
| CC(C)(C)C(=O)N1CCC[C@H](CNc2nc(-c3c[nH]c4ncc(Cl)cc34)ncc2F)C1 [Compound 105, (R)-1-(3-((2-(5-chloro-1H-pyrrolo[2,3-b]pyridin-3-yl)-5-fluoropyrimidin-4-ylamino)methyl)piperidin-1-yl)-2,2-dimethylpropan-1-one] | > 5.30 | > 5.30 |  |  |
| O=C(COCc1ccccc1)N1CCC[C@H](CNc2nc(-c3c[nH]c4ncc(Cl)cc34)ncc2F)C1 [Compound 106, (R)-2-(benzyloxy)-1-(3-((2-(5-chloro-1H-pyrrolo[2,3-b]pyridin-3-yl)-5-fluoropyrimidin-4-ylamino)methyl)piperidin-1-yl)ethanone] | > 5.30 | > 5.30 |  |  |
| O=C(c1cc2ccccc2s1)N1CCC[C@H](CNc2nc(-c3c[nH]c4ncc(Cl)cc34)ncc2F)C1 [Compound 107, (R)-benzo[b]thiophen-2-yl(3-((2-(5-chloro-1H-pyrrolo[2,3-b]pyridin-3-yl)-5-fluoropyrimidin-4-ylamino)methyl)piperidin-1-yl)methanone] | > 5.30 | > 5.30 |  |  |
| COc1ccc(C(=O)N2CCC[C@H](CNc3nc(-c4c[nH]c5ncc(Cl)cc45)ncc3F)C2)cc1OC [Compound 109, (R)-(3-((2-(5-chloro-1H-pyrrolo[2,3-b]pyridin-3-yl)-5-fluoropyrimidin-4-ylamino)methyl)piperidin-1-yl)(3,4-dimethoxyphenyl)methanone] | > 5.30 | > 5.30 |  |  |
| CC(=O)OCC(=O)N1CCC[C@H](CNc2nc(-c3c[nH]c4ncc(Cl)cc34)ncc2F)C1 [Compound 110, (R)-2-(3-((2-(5-chloro-1H-pyrrolo[2,3-b]pyridin-3-yl)-5-fluoropyrimidin-4-ylamino)methyl)piperidin-1-yl)-2-oxoethyl ethanoate] | > 5.30 | > 5.30 |  |  |
| CC(=O)N1CCC[C@H](CNc2nc(-c3c[nH]c4ncc(Cl)cc34)ncc2F)C1 [Compound 111, (R)-1-(3-((2-(5-chloro-1H-pyrrolo[2,3-b]pyridin-3-yl)-5-fluoropyrimidin-4-ylamino)methyl)piperidin-1-yl)ethanone] | > 5.30 | > 5.30 |  |  |
| CNc1ccccc1C(=O)N1CCC[C@H](CNc2nc(-c3c[nH]c4ncc(Cl)cc34)ncc2F)C1 [Compound 112, (R)-(3-((2-(5-chloro-1H-pyrrolo[2,3-b]pyridin-3-yl)-5-fluoropyrimidin-4-ylamino)methyl)piperidin-1-yl)(2-(methylamino)phenyl)methanone] | > 5.30 | > 5.30 |  |  |
| COc1ccccc1C(=O)N1CCC[C@H](CNc2nc(-c3c[nH]c4ncc(Cl)cc34)ncc2F)C1 [Compound 113, (R)-(3-((2-(5-chloro-1H-pyrrolo[2,3-b]pyridin-3-yl)-5-fluoropyrimidin-4-ylamino)methyl)piperidin-1-yl)(2-methoxyphenyl)methanone] | > 5.30 | > 5.30 |  |  |
| C=CCOC(=O)N1CCC[C@H](CNc2nc(-c3c[nH]c4ncc(Cl)cc34)ncc2F)C1 [Compound 119, (R)-allyl 3-((2-(5-chloro-1H-pyrrolo[2,3-b]pyridin-3-yl)-5-fluoropyrimidin-4-ylamino)methyl)piperidine-1-carboxylate] | > 5.30 | > 5.30 |  |  |
| Cc1cc(NC(=O)N2CCC[C@H](CNc3nc(-c4c[nH]c5ncc(Cl)cc45)ncc3F)C2)c(C(F)(F)F)o1 [Compound 120, (R)-3-((2-(5-chloro-1H-pyrrolo[2,3-b]pyridin-3-yl)-5-fluoropyrimidin-4-ylamino)methyl)-N-(5-methyl-2-(trifluoromethyl)furan-3-yl)piperidine-1-carboxamide] | > 5.30 | > 5.30 |  |  |
| C#CCOC(=O)N1CCC[C@H](CNc2nc(-c3c[nH]c4ncc(Cl)cc34)ncc2F)C1 [Compound 122, (R)-prop-2-ynyl 3-((2-(5-chloro-1H-pyrrolo[2,3-b]pyridin-3-yl)-5-fluoropyrimidin-4-ylamino)methyl)piperidine-1-carboxylate] | > 5.30 | > 5.30 |  |  |
| Fc1cnc(-c2c[nH]c3ncc(Cl)cc23)nc1NC[C@H]1CCCN(c2ncccn2)C1 [Compound 124, (R)-2-(5-chloro-1H-pyrrolo[2,3-b]pyridin-3-yl)-5-fluoro-N-((1-(pyrimidin-2-yl)piperidin-3-yl)methyl)pyrimidin-4-amine] | > 5.30 | > 5.30 |  |  |
| O=C(OCCF)N1CCC[C@H](CNc2nc(-c3c[nH]c4ncc(Cl)cc34)ncc2F)C1 [Compound 126, (R)-2-fluoroethyl 3-((2-(5-chloro-1H-pyrrolo[2,3-b]pyridin-3-yl)-5-fluoropyrimidin-4-ylamino)methyl)piperidine-1-carboxylate] | > 5.30 | > 5.30 |  |  |
| CC#CCOC(=O)N1CCC[C@H](CNc2nc(-c3c[nH]c4ncc(Cl)cc34)ncc2F)C1 [Compound 127, (R)-but-2-ynyl 3-((2-(5-chloro-1H-pyrrolo[2,3-b]pyridin-3-yl)-5-fluoropyrimidin-4-ylamino)methyl)piperidine-1-carboxylate] |  |  | > 5.30 | > 5.30 |
| CC(C)(C)NC(=O)N1CCC[C@H](CNc2nc(-c3c[nH]c4ncc(Cl)cc34)ncc2F)C1 [Compound 128, (R)—N-tert-butyl-3-((2-(5-chloro-1H-pyrrolo[2,3-b]pyridin-3-yl)-5-fluoropyrimidin-4-ylamino)methyl)piperidine-1-carboxamide] | > 5.30 | > 5.30 |  |  |
| O=C(Nc1cccs1)N1CCC[C@H](CNc2nc(-c3c[nH]c4ncc(Cl)cc34)ncc2F)C1 [Compound 129, (R)-3-((2-(5-chloro-1H-pyrrolo[2,3-b]pyridin-3-yl)-5-fluoropyrimidin-4-ylamino)methyl)-N-(thiophen-2-yl)piperidine-1-carboxamide] | > 5.30 | > 5.30 |  |  |
| COC(=O)NC(=O)N1CCC[C@H](CNc2nc(-c3c[nH]c4ncc(Cl)cc34)ncc2F)C1 [Compound 131, (R)-methyl 3-((2-(5-chloro-1H-pyrrolo[2,3-b]pyridin-3-yl)-5-fluoropyrimidin-4-ylamino)methyl)piperidine-1-carbonylcarbamate] | > 5.30 | > 5.30 |  |  |
| O=C(c1cc(F)cc2c1OCOC2)N1CCC[C@H](CNc2nc(-c3c[nH]c4ncc(Cl)cc34)ncc2F)C1 [Compound 142, (R)-(3-((2-(5-chloro-1H-pyrrolo[2,3-b]pyridin-3-yl)-5-fluoropyrimidin-4-ylamino)methyl)piperidin-1-yl)(6-fluoro-4H-benzo[d][1,3]dioxin-8-yl)methanone] | > 5.30 | > 5.30 |  |  |
| Cc1ccccc1C(=O)N1CCC[C@H](CNc2nc(-c3c[nH]c4ncc(Cl)cc34)ncc2F)C1 [Compound 143, (R)-(3-((2-(5-chloro-1H-pyrrolo[2,3-b]pyridin-3-yl)-5-fluoropyrimidin-4-ylamino)methyl)piperidin-1-yl)(o-tolyl)methanone] | > 5.30 | > 5.30 |  |  |
